We go through five compounds from patent US5932733A, “3-amino-2-oxo-1-piperidineacetic derivatives containing an arginine mimic as enzyme inhibitors” (Corvas International, Inc., priority 1995, dated 1999).

One data set deals with Plasmin (Homo sapiens, UniProt P00747). The data set can be described thus: In vitro enzyme assay for specificity: plasmin. The class given is biochemical. The note with it: 1.0 nM enzyme, 30 min preincubation, pH 7.5; mean of at least two experiments. The method, then: Plasmin catalytic activity was determined using the chromogenic substrate, S-2251 [D-valyl-L-leucyl-L-lysine-p-nitroanilide], which was obtained from Kabi Diagnostica.
Chain of Plasmin (P00747 97-580 limits assumed): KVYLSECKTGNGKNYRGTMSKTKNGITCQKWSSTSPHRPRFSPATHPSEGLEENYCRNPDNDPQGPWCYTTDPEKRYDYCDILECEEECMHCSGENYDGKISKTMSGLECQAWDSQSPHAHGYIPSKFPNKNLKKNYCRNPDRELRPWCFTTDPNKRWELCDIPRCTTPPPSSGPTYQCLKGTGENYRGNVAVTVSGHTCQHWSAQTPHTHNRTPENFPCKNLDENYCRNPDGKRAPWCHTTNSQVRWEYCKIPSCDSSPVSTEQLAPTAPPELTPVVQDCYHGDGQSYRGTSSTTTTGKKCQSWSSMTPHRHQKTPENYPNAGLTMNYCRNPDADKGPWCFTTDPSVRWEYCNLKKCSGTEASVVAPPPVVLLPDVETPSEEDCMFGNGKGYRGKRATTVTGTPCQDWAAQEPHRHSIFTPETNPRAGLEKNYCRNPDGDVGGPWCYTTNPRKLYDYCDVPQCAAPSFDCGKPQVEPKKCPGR
Chain of Plasmin (P00747 581-810 limits assumed): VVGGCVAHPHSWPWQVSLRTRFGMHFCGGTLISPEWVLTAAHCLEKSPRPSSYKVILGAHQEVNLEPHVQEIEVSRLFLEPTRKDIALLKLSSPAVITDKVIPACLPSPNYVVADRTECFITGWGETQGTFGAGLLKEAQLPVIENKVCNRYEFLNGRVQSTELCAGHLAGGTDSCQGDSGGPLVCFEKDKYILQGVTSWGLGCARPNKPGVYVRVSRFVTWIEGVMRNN

The next data set addresses Chymotrypsin (Bos taurus, UniProt P00766). The experiment in a line: In vitro enzyme assay for specificity: chymotrypsin. The class given is biochemical, bovine. The following applies: 1.0 nM enzyme, 30 min preincubation, pH 7.5; mean of at least two experiments. As to the method: Chymotrypsin catalytic activity was determined using the chromogenic substrate, S-2586 (methoxy-succinyl-L-arginine-L-prolyl-L-tyrosyl-p-nitroanilide), which was obtained from Kabi Diagnostica. […] Purified (3×-crystallized;CDI) bovine pancreatic alpha-chymotrypsin was obtained from Worthington Biochemical Corp. The enzyme was reconstituted in deionized water and diluted into HBSA prior to assay in which the final concentration was 1.0 nM.

Another data set deals with alpha-thrombin (Homo sapiens, UniProt P00734). The data set can be described thus: In vitro enzyme assay for specificity: thrombin amidolytic activity. Format: biochemical. The following applies: 0.25 nM enzyme, 30 min preincubation, pH 7.5, mean of at least two experiments.
The next data set has as its target T1, aPC (Homo sapiens, UniProt P04070).
T1 construct: purchased Hematologic Technologies, Inc
The data set can be described thus: In vitro enzyme assay for specificity: activated protein C. The class given is biochemical. The note with it: 1.0 nM enzyme, 30 min preincubation, pH 7.5; mean of at least two experiments. The method, then: Activated Protein C (aPC)
aPC catalytic activity was determined using the chromogenic substrate, Pefachrome PC (delta-carbobenzloxy-D-lysine-L-prolyl-L-arginine-p-nitroanilide), obtained from Pentapharm Ltd.). […] Purified human aPC was obtained from Hematologic Technologies, Inc. The enzyme was diluted into HBSA prior to assay in which the final concentration was 1.0 nM.

The next data set addresses T2, rt-PA (Homo sapiens, UniProt P00750).
T2 construct: purchased Genentech Inc
The experiment in a line: In vitro enzyme assay for specificity: recombinant tissue plasminogen activator. The class given is biochemical. The following applies: 1.0 nM enzyme, 30 min preincubation, pH 7.5; mean of at least two experiments. From the text: Recombinant tissue plasminogen activator (rt-PA)

In the next data set the target is T3, Trypsin (Bos taurus, UniProt P00760).
T3 sequence (P00760 24-246): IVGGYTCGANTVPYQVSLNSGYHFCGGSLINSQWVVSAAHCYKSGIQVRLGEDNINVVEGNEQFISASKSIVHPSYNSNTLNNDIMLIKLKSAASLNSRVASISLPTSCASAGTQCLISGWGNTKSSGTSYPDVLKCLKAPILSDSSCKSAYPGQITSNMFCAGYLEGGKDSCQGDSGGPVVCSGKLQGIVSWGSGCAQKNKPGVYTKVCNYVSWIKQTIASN
The data set can be described thus: In vitro enzyme assay for specificity: trypsin. The class given is biochemical, bovine. The note with it: 0.5 nM enzyme, 30 min preincubation, pH 7.5; mean of at least two experiments. As to the method: Trypsin catalytic activity was determined using the chromogenic substrate, S-2222 (benzoyl-L-isoleucine-L-glutamic acid- (gamma-methyl ester)-L-arginine-p-nitroanilide), which was obtained from Kabi Diagnostica. […] Purified (3×-crystallized; TRL3) bovine pancreatic trypsin was obtained from Worthington Biochemical Corp. The enzyme was reconstituted in deionized water and diluted into HBSA prior to assay in which the final concentration was 0.5 nM.

A further data set deals with human plasma. The experiment in a line: Ex vivo anticoagulant effect, activated partial thromboplastin time (APTT) in human plasma. Format: biochemical. The note with it: citrated human plasma; control 29 seconds; mean of two independent determinations. From the text: (§1) The control clotting times (0 inhibitor) for rat and human plasma were 19 seconds and 29 seconds, respectively. The concentration of BzlSO2 -norVal(cyclo)-Gly-Ala(3-guanPip)-al which caused a doubling of the control clotting time in rat and human plasma was 12.7 micromolar and 9.1 micromolar, respectively. The data is the mean of two independent determinations.
(§2) Fresh frozen citrated pooled normal human plasma was obtained from George King Biomedical, Overland Park, KA. Pooled normal rat plasma was prepared from citrated whole blood collected from anesthetized rats using standard procedures. The plasma was flash frozen and stored at-80° C. until use. Measurements APTT was made using the Coag-A-Mate RA4 automated coagulometer (General Diagnostics, Organon Technica, Oklahoma City, Okla.) using the Automated APTT reagent (Organon Technica, Durham, N.C.) as the initiator of clotting according to the manufacturers instructions. The assay was conducted by making a series of dilution's of Isomer B in rapidly thawed plasma followed by adding 200 microliters to the wells of the assay carousel.

Another data set relates to rat plasma. The experiment in a line: Ex vivo anticoagulant effect, activated partial thromboplastin time (APTT) in rat plasma. The class given is biochemical. The note with it: citrated rat plasma; control 19 seconds; mean of two independent determinations.
Excerpt: as §1, §2

Data set [1] relates to FeCl3-induced platelet-dependent arterial thrombosis. The experiment in a line: Rat model of FeCl3-induced platelet-dependent arterial thrombosis. The class given is in vivo. The following applies: single i.v. bolus, n=6, saline 6/6. From the text:
Kurz, K. D., Main, B. W., and Sandusky, G. E., Thromb. […] In this model a platelet-rich, occlusive thrombus is formed in a segment of the rat carotid artery treated locally with a fresh solution of FeCl3 absorbed to a piece of filter paper. The FeCl3 is thought to diffuse into the treated segment of artery and causes de-endothelialization of the affected vessel surface. […] The effect of a test compound on the incidence of occlusive thrombus formation following the application of the FeCl3 is monitored by ultrasonic flowtometry and is used as the primary end point. The use of flowtometry to measure carotid artery blood flow, is a modification of the original procedure in which thermal detection of clot formation was employed. Kurz, K. D., Main, B. W., and Sandusky, G. E., Thromb. […] The animals were prepared, anesthetized with Nembutal followed by the insertion of catheters for blood pressure monitoring, drug and anesthesia delivery. The left carotid artery was isolated by making a midline cervical incision followed by blunt dissection and spreading techniques to separate a 2 cm segment of the vessel from the carotid sheath. A silk suture is inserted under the proximal and distal ends of the isolated vessel to provide clearance for the placement of a ultrasonic flow probe (Transonic) around the proximal end of the vessel. The probe is then secured with a stationary arm. […] The test compound was administered as a single intravenous bolus at the doses outlined in Table 3 after placement of the flow probe and 5 minutes prior to the thrombogenic stimulus.

The subject of data set [2] is trypsin, plasmin and kallikrein. The following applies: Markwardt et al. 1972, inhibiting trypsin; cited from earlier work.
For data set [3] the following is noted: literature report; cited from earlier work.
The conditions of data set [4]: Markwardt et al. 1972; cited from earlier work.

The structures appear in SMILES notation. A value given as a limit tells only on which side of the number the result lay.

T1 sequence (P04070 43-197 limits assumed): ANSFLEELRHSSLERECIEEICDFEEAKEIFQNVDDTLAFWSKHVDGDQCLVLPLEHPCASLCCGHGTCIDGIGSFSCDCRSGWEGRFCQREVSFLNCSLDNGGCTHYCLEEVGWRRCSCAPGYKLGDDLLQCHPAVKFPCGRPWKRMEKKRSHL
T1 sequence (P04070 212-461 limits assumed): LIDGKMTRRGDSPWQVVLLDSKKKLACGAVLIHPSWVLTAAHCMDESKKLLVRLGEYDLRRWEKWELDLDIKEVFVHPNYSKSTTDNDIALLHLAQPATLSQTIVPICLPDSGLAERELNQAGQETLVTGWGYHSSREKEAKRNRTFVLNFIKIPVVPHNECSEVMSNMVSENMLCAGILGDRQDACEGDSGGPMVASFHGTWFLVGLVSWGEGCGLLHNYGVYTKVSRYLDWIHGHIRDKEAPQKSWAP
T2 sequence (P00750 36-562): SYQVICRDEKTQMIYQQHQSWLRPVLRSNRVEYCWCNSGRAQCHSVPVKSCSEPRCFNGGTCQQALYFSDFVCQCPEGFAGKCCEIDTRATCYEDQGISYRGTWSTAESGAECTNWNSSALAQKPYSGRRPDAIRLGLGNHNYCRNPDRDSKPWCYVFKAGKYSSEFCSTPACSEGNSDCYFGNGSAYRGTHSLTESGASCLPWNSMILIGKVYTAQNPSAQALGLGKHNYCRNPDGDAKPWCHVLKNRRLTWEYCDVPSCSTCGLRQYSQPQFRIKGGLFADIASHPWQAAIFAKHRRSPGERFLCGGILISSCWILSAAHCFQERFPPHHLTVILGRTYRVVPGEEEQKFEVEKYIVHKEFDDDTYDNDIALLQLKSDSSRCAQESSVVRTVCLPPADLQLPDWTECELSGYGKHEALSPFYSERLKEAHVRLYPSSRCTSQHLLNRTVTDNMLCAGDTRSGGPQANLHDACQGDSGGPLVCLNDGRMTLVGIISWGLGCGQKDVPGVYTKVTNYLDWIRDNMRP
Experimental for alpha-thrombin: The buffer used for all assays was HBSA (10 mM HEPES, pH 7.5, 150 mM sodium chloride, 0.1% bovine serum albumin). […] Following a 30-minute incubation at ambient temperature, 50 microliters of the substrate at the concentrations specified below, was added to the wells yielding a final total volume of 200 microliters. The initial velocity of chromogenic substrate hydrolysis was measured by the change in absorbance at 405 nm using a Thermo Max® Kinetic Microplate Reader over a 5 minute period in which less than 5% of the added substrate was utilized.
Thrombin catalytic activity was determined using the chromogenic substrate Pefachrome t-PA (CH3 SO2 -D-hexahydrotyrosine-glycyl-L-arginine-p-nitroanilide, obtained from Pentapharm Ltd.). The substrate was made up in deionized water followed by dilution in HBSA prior to the assay in which the final concentration was 300 micromolar (about 5-times Km). Purified human alpha-thrombin was obtained from Enzyme Research Laboratories, Inc. The enzyme was diluted into HBSA prior to the assay in which the final concentration was 0.25 nM.

Broadly, the IC50 is the midpoint of a concentration-inhibition curve. For `N=C(N)N1CCCC(C[C@@H](C=O)NC(=O)CN2CCC[C@H](NS(=O)(=O)Cc3ccccc3)C2=O)C1` (single isomer, unassigned) [A, benzylsulfonyl-norval(cyclo)-Gly-3-[3-piperidyl-(N-guanidino)]-L-alaninal], the half-inhibitory concentration (IC50) against Plasmin was above 2.5 µM; against Chymotrypsin, above 25 µM; against alpha-thrombin, 0.0288 µM; at aPC it was above 25 µM; at rt-PA, above 25 µM; against Trypsin, above 25 µM.
`N=C(N)N1CCCC(C[C@@H](C=O)NC(=O)CN2CCCC[C@H](NS(=O)(=O)Cc3ccccc3)C2=O)C1` (single isomer, unassigned) [C, N-(BnSO2-norLeu(cyclo)-Gly)-3-[3-piperidyl-(N-guanidino)]alaninal]: the IC50 is above 2.5 µM on Plasmin, above 2.5 µM against Chymotrypsin, above 2.5 µM against aPC and 11.2 µM against Trypsin.
For the compound `N=C(N)N1CCCC(C[C@@H](C=O)NC(=O)CN2CCCC[C@H](NS(=O)(=O)Cc3ccccc3)C2=O)C1` (single isomer, unassigned) [D, N-(BnSO2-norLeu(cyclo)-Gly)-3-[3-piperidyl-(N-guanidino)]alaninal], the IC50 is above 2.5 µM against Plasmin, above 2.5 µM against Chymotrypsin, above 2.5 µM against aPC and 34.4 µM against Trypsin.
In turn, `N=C(N)N1CCCC(C[C@@H](C=O)NC(=O)CN2CCC[C@H](NS(=O)(=O)Cc3ccccc3)C2=O)C1` (single isomer, unassigned) [Isomer B, benzylsulfonyl-norval(cyclo)-Gly-3-[3-piperidyl-(N-guanidino)]-L-alaninal] returned a half-maximal inhibitory concentration (IC50) at alpha-thrombin of 0.0008 µM. Also, the figures for the “concentration which caused a doubling of the control clotting time (APTT)” value with human plasma and in the data set with rat plasma were 9.1 µM and 12.7 µM, respectively. In addition, the “Incidence of Occlusion” value was 6/6 in data set [1] (0.3 mg/kg); 4/6 in [1] (1.0 mg/kg); 0/6 in [1] (3.0 mg/kg, * p ≤ 0.05 from saline control by Fishers test).
With `N=C(N)c1ccc(CC(=O)C(=O)O)cc1` [APPA, 4-amidinophenylpyruvic acid], the “selectivity of thrombin inhibition” value in [2] is “non-selective, inhibiting trypsin, plasmin and kallikrein”. Besides, the toxicity entry in data set [3] was “low toxicity”. Besides, the pharmacokinetics result in data set [4] is reported as “favourable pharmacokinetics”.
